The text below walks through data of patent publication US20080020014A1, “Implantable devices containing nuclear receptor ligands for the treatment of vascular and related disorders” (priority 2006, published 2008).

One series deals with PPARs. To be noted: cited from earlier work.
The subject of the next series is atherosclerosis. As to conditions: through liver X receptors (LXR); cited from earlier work.
A further series relates to rabbit femoral arteries. As to conditions: 28 days after angioplasty; cited from earlier work.
The test system of series [1] is rat carotid arteries. To be noted: balloon-denuded rat carotid arteries; cited from earlier work.
The subject of series [2] is rat carotid arteries. To be noted: after balloon injury to rat carotid arteries; cited from earlier work.
Series [3] relates to vascular smooth muscle cell. As to conditions: cited from earlier work.
The subject of series [4] is collagenase gene expression at AP-1 binding sites. To be noted: cited from earlier work.
The nature of series [5]: Drug-release rate of Example 3 stents in phosphate-buffered saline with 1 mass % sodium dodecyl sulfate, pH 7.4, 37° C., HPLC. Format: physicochemical. Here is the method:
A drug-polymer layer comprising 17-β estradiol was applied onto a stent in the following manner. A first composition was prepared by mixing the following components: • (a) about 2.0 mass % of EVAL; and • (b) the balance, a mixture of solvents, DMAC and ethanol, in a ratio of DMAC to ethanol of about 70:30 by mass.
The first composition was applied onto the surface of a bare 13 mm TETRA stent (available from Abbott Vascular Corp.) by spraying and dried to form a primer layer. A spray coater having an EFD 7803 spray valve with 0.014 inch fan nozzle with a VALVEMATE 7040 control system (manufactured by EFD Inc. of East Providence, R.I) was used. The fan nozzel was maintained at about 60° C. with a feed pressure of about 0.2 atm (about 3 psi) and an atomization pressure of about 1.35 atm (about 20 psi). An average of about 19 micrograms (μg) per coating pass was applied and an average total of about 62 μg of the wet coating was applied.
The primer layer was baked at about 140° C. for about one hour, yielding a layer with an average total amount of solids of about 61 μg, corresponding to an average thickness on the stent of 0.65 μm. “Solids” means the amount of dry residue deposited on the stent after all volatile organic compounds (e.g., the solvent) have been removed.
A second composition was prepared by mixing the following components: • (a) about 2.0 mass % of EVAL; • (b) about 0.7 mass % 17-β estradiol; and • (c) the balance, a mixture of solvents, DMAC and ethanol, in a ratio of DMAC to ethanol of about 70:30 by mass.
The second composition was applied onto the dried primer layer to form a drug-polymer polymer layer using the same spraying technique and equipment used for the primer layer. […] of the wet coating was applied, followed by drying at about 50° C. for about 2 hours. The total amount of solids of the drug-polymer layer was about 494 μg, corresponding to an average thickness on the stent of about 5.3 μm.
A third, topcoat composition was prepared by mixing the following components: • (a) about 1.2 g of a 10 mass % solution of KYNAR-FLEX 2800 in acetone; • (b) about 1.89 g of additional acetone; • (c) about 5.94 g of cyclohexanone; and • (d) about 2.97 g of AMS FLUX REMOVER.
The topcoat composition was applied by spraying using an EFD 7803 spray valve with 0.014 inch fan nozzle to form a topcoat layer, followed by drying. The nozzle temperature was at ambient temperature with a feed pressure of about 0.2 atm (3 psi) and an atomization pressure of about 1 atm (15 psi). The dryer temperature was at ambient temperature with a dryer air pressure of about 2.7 atm (40 psi). An average of about 5 μg per coating pass was applied and an average total of about 60 μg of wet coating was applied. The topcoat layer was baked at about 50° C. for two hours, yielding a total amount of solids of about 55 μg, corresponding to a thickness of about 0.38 μm.
Three stents coated according to this example were tested for their drug-release rate. The stents were immersed in individual, stirred vessels containing a phosphate-buffered saline solution that included about 1 mass % of sodium dodecyl sulfate. […] The amount of 17-β estradiol released was determined at measured intervals of time by HPLC. […] There was an initial small burst of 17-β estradiol during the first 20 hours, after which the release rate became approximately linear. Specifically, about 18% of 17-β estradiol was released after 10 hr, 25% after 20 hr, 30% after 30 hr, 35% after 40 hr, 40% after 50 hr, 43% after 60 hr, and 45% after 70 hr.

The conditions of series [6]: in blood; may not happen in tissue; listed as Tazarotene; cited from earlier work.
Series [7] has as its system retinoic acid receptors (RARs). To be noted: cited from earlier work.

On to `CC(C)(Sc1ccc(CCN(CCCCC2CCCCC2)C(=O)NC2CCCCC2)cc1)C(=O)O` [GW-7647], for which, in the series with PPARs, the PPAR subtypes activated result was “α”. In addition, in the series with atherosclerosis, the “atherosclerosis and formation of microphage-forming cells” value was “inhibited”.
Turning to `CCCCCC=CC=CC(=O)CCCCCCCC(=O)O` [9-oxo ODE, 9-oxo octadecadienoic acid], in the series with PPARs, the PPAR subtypes activated result was “γ”.
In the case of `CC/C=C\C/C=C\C/C=C\C/C=C\C/C=C\C/C=C\CCC(=O)O` [docahexanoic acid], the PPAR subtypes activated result with PPARs is recorded as “α, δ, γ”.
With `Cc1cccc(Nc2cc(Cl)nc(SCC(=O)O)n2)c1C` [WY-14643], the PPAR subtypes activated entry with PPARs is given as “α, δ, γ”.
Regarding `CCCCC[C@H](O)/C=C/C=C\C/C=C\C/C=C\CCCC(=O)O` [15-HETE], in the series on PPARs, the PPAR subtypes activated entry was “γ”.
Consider `CC1=C(/C=C/C(C)=C/C=C/C(C)=C/CO)C(C)(C)CCC1` [retinol], for which the “internal and external elastic lamina” value in the series with rabbit femoral arteries is recorded as “larger”.
As to `CCCCCCCCCCCCCCSCC(=O)O` [tetradecythioacetate], the PPAR subtypes activated result in the series on PPARs was “α”.
On to `CCCCCCCCCCCCCCC1(C(=O)O)CO1` (stereo not shown) [tetradecylglycidic acid], for which the PPAR subtypes activated entry in the series with PPARs is reported as “α, δ”.
In the case of `CCCCC/C=C\C/C=C\C/C=C\C/C=C\CCCC(=O)O` [arachidonic acid], in the series with PPARs, the PPAR subtypes activated result is listed as “α, δ, γ”.
Regarding `CCCCC[C@@H](/C=C/C=C\CCCCCCCC(=O)O)OO` [13-(S) HpODE, 13-(S) hydroperoxyoctadecadienoic acid], the PPAR subtypes activated result in the series with PPARs is reported as “γ”.
Turning to `CCCCC[C@H](O)/C=C/[C@H]1C(=O)C=C[C@@H]1C/C=C\CCCC(=O)O` [PGJ2, prostaglandin J2], in the series with PPARs, the PPAR subtypes activated result is on record as “α, δ, γ”.
As for `CCCCC[C@H](O)/C=C/[C@@H]1[C@H]2C/C(=C/CCCC(=O)O)O[C@H]2C[C@H]1O` [prostacyclin (PGI2), prostacyclin], in the series on PPARs, the PPAR subtypes activated result is on record as “α, δ, γ”.
On to `CCCCCCCCCSCC(=O)O` [nonythioacetic acid], for which the PPAR subtypes activated entry in the series on PPARs was “α”.
With `CCCCC[C@H](O)/C=C/C1=C(C/C=C\CCCC(=O)O)C(=O)CC1` [PGB2], the PPAR subtypes activated entry in the series on PPARs is given as “α, δ, γ”.
As to `CC1=C(/C=C/C(C)=C/C=C/C(C)=C/C(=O)O)C(C)(C)CCC1` [all-trans retinoic acid], in the series on rat carotid arteries [1], the intimal thickening result is “suppressed” and the vessel remodeling entry is reported as “increased”. Also, in the series on rat carotid arteries [2], the favorable geometric remodeling result is on record as “promoted” and the neointimal formation result is “reduced”. The “vascular smooth muscle cell proliferation” value in series [3] is listed as “inhibited”. Further, the “collagenase gene expression at AP-1 binding sites” value in series [4] was “inhibited”.
“9-(R/S) hydroxyoctadecadienoic acid [9-(R/S) HODE]”: the PPAR subtypes activated result in the series on PPARs is on record as “γ”.
For the molecule `CCCCCCCCCCCCCCC(Br)C(=O)O` (stereo not shown) [2-bromopalmitate], the PPAR subtypes activated result in the series on PPARs is “α, δ”.
As to `CCCCC/C=C\C/C=C\C=C\[C@H](O)C/C=C\CCCC(=O)O` [8-(R) HETE, 8-(R)-hydroxyeicosatetaenoic acid], in the series on PPARs, the PPAR subtypes activated result is given as “α, γ”.
Turning to `CCCCC/C=C/C=C1/C(=O)C=C[C@@H]1C/C=C\CCCC(=O)O` [15d-PGJ2, 15-deoxy-Δ^12,14-PGJ2], in the series on PPARs, the PPAR subtypes activated entry was “α, δ, γ”.
On to `CCCCCC#CCC#CCC#CCC#CCCCC(=O)O` [ETYA, eicosatetraynoic acid], for which the PPAR subtypes activated result in the series with PPARs is reported as “α”.
In the case of `CCC/C=C/C/C=C/C=C/C=N/NN=O` [Triacsin C], in the series on PPARs, the PPAR subtypes activated entry is reported as “α”.
With `C[C@]12CC[C@@H]3c4ccc(O)cc4CC[C@H]3[C@@H]1CC[C@@H]2O` [17-β estradiol], the 17-β estradiol released result was “about 18%” in series [5] (after 10 hr, EVAL drug-polymer layer, KYNAR-FLEX 2800 topcoat); around 25% in series [5] (after 20 hr); around 30% in series [5] (after 30 hr); around 35% in series [5] (after 40 hr); around 40% in series [5] (after 50 hr); around 43% in series [5] (after 60 hr). Moreover, in series [5] (after 70 hr), the 17-β estradiol released is recorded as around 45%.
As to `CCC=CCC=CCC=CC=CC(O)CC=CCCCC(=O)O` (stereo not shown) [8-HEPE, 8-hydroxyeicosapentaenoic acid], the PPAR subtypes activated entry in the series on PPARs is on record as “α”.
Consider `CCCCC/C=C\C[C@@H](O)/C=C/C=C/C=C\[C@@H](O)CCCC(=O)O` [LTB4], for which, in the series with PPARs, the PPAR subtypes activated result is “α”.
For the molecule `CCCCCC(=O)/C=C/C=C\CCCCCCCC(=O)O` [13-oxo ODE], the PPAR subtypes activated result with PPARs was “γ”.
With `CCCCC/C=C\C[C@H](O)/C=C/C=C\C/C=C\CCCC(=O)O` [12-HETE], in the series with PPARs, the PPAR subtypes activated entry was “α”.
As for `CCOC(=O)c1ccc(C#Cc2ccc3c(c2)C(C)(C)CCS3)nc1` [tazarotene], the “Pharmacokinetics: de-esterification / metabolism to tazarotenic acid” value in series [6] is on record as “rapidly metabolized to tazarotenic acid”. The Receptor specificity result in [7] is reported as “specific for retinoic acid receptors (RARs)”.
For the molecule `CC1=C(/C=C/C(C)=C/C=C/C(C)=C\C(=O)O)C(C)(C)CCC1` [13-cis retinoic acid], in the series on rat carotid arteries [1], the intimal thickening result was “suppressed” and the vessel remodeling entry is listed as “increased”.
Take `CCCCC[C@H](O)/C=C/C=C\CCCCCCCC(=O)O` (racemic) [13-(R/S) HODE]: the PPAR subtypes activated entry in the series on PPARs is “γ”.
`CCCCC/C=C\C/C=C\C=C\[C@@H](O)C/C=C\CCCC(=O)O` [8-(S) HETE]: the PPAR subtypes activated result with PPARs was “α, γ”.
Take clofibrates: the PPAR subtypes activated result with PPARs is given as “α, δ, γ”.
As for `CCCCC/C=C\C/C=C\CCCCCCCC(=O)O` [linoleic acid], the PPAR subtypes activated result in the series with PPARs is recorded as “α, δ”.
